Data from patent EP1925314A1, “Pharmaceutical composition with synergistic anticonvulsant effect” (SCHWARZ PHARMA AG, priority 2006, dated 2008).
Where two headings read alike, the source gives them in different places.

Columns and labels:
[1] = tested on: epileptic seizures; assay: ED50 of the individual compounds, seizure model not given (various models of the rat and the mouse); format: in vivo; details: ip
Experimental: The skilled person may determine the ED50 values by methods known in the art. It is preferred that the ED50 values are determined by preclinical or/and clinical trials. Published ED50 values may also be used. […] Tables 5 and 6 disclose specific ED50 values obtained in various models of the rat and the mouse. A person skilled in the art knows that in a particular model, among different species, ED50 values show a variation by a factor of up to 5 or even larger.

[2] = tested on: 6 Hz-induced seizures; assay: 6 Hz seizure test in mice, with isobolographic analysis of drug combinations; details: for anticonvulsant effects against 6 Hz seizure: i.p., mice
[3] = tested on: lithium-pilocarpine-induced status epilepticus; details: Bialer et al., 2001, 2002; cited from earlier work
[4] = tested on: cobalt-homocysteine-induced status epilepticus; details: Bialer et al., 2001, 2002; cited from earlier work
[5] = tested on: mouse cortical neurons; details: mouse cortical neurons (Bialer et al., 2002); cited from earlier work
[6] = tested on: refractory self-sustaining status epilepticus; details: in vivo; cited from earlier work
[7] = tested on: pattern of neuronal activation; details: Duncan and Kohn (2004); cited from earlier work
[8] = Clinical population pharmacokinetic analysis
[9] = tested on: drug metabolizing enzymes; assay: Inhibition, induction and metabolism by drug metabolizing enzymes; details: a large variety of enzymes
[10] = tested on: 6 Hz psychomotor seizures; details: determined in the anticonvulsant drug screening program of NINDS; cited from earlier work
[11] = tested on: 6 Hz-induced seizures; details: literature observation (Gower et al., 1993; Klitgaard et al., 1998); cited from earlier work
[12] = approximate value, model not stated, read-out: ED50

Nc1nnc(-c2cccc(Cl)c2Cl)c(N)n1 [LTG, lamotrigine]
ED50 [1]: ~85 mg/kg | anticonvulsant effects against 6 Hz seizure ([2]; drugs administered alone): dose-dependent anticonvulsant effects

O=C1NC(=O)C(c2ccccc2)(c2ccccc2)N1 [PHT, phenytoin]
anticonvulsant effects against 6 Hz seizure ([2]; drugs administered alone): dose-dependent anticonvulsant effects

NCC1(CC(=O)O)CCCCC1 [GBP, gabapentin]
ED50 [1]: ~220 mg/kg | anticonvulsant effects against 6 Hz seizure ([2]; drugs administered alone): dose-dependent anticonvulsant effects

COC[C@@H](NC(C)=O)C(=O)NCc1ccccc1 [LCM, R-2-acetamido-N-benzyl-3-methoxypropionamide]
efficacy against lithium-pilocarpine-induced status epilepticus [3]: effective | ED50 [1]: ~10 mg/kg | efficacy against cobalt-homocysteine-induced status epilepticus [4]: effective | GABA currents [5]: increased | glutamate transmission [5]: inhibited glutamate transmission indirectly | activity against refractory self-sustaining status epilepticus [6]: active | specific pattern of neuronal activation [7]: attenuated | ED50 ([2]; Mus musculus, ip, 0.5 h): 10.1 mg/kg | anticonvulsant effects against 6 Hz seizure ([2]; drugs administered alone): dose-dependent anticonvulsant effects | potency compared to the other tested AEDs ([2]; drugs administered alone, lowest ED50): highest potency | effect of LCM on plasma levels of AEDs or vice versa [8]: no evidence for any effect | inhibition or induction of drug metabolizing enzymes [9]: does not inhibit or induce | ED50 [10]: 9.9 mg/kg

CC[C@@H](C(N)=O)N1CCCC1=O [LEV, levetiracetam]
ED50 [1]: ~20 mg/kg | protection in the 6Hz test [11]: complete protection | anticonvulsant effects against 6 Hz seizure ([2]; drugs administered alone): dose-dependent anticonvulsant effects

CC1(C)O[C@@H]2[C@@H](CO[C@@]3(COS(N)(=O)=O)OC(C)(C)O[C@@H]23)O1 [TPM, topiramate]
ED50 [1, 12]: ~300 mg/kg | anticonvulsant effects against 6 Hz seizure ([2]; drugs administered alone): dose-dependent anticonvulsant effects

NC(=O)N1c2ccccc2C=Cc2ccccc21 [CBZ, carbamazepine]
ED50 [1, 12]: ~50 mg/kg | anticonvulsant effects against 6 Hz seizure ([2]; drugs administered alone): dose-dependent anticonvulsant effects
